# Tests used:
# Type in all cases: in vivo
# [1] = system: blackgrass (Alopecurus myosuroides); experiment: Test A postemergence, visual plant response rating; conditions: for Blackgrass plant response rating (0 to 100 scale): 500 g ai/ha, postemergence, 0 is no effect, 100 is complete control; for Blackgrass plant response rating: Postemergence, 125 g ai/ha, 0 to 100 scale (0 no effect, 100 complete control)
# Outline: (§1)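 Greenhouse evaluation, approx. 10 days post-spray. Soil: loam + sand. Postemergence stage: 1–2 leaves, height 2–10 cm. Vehicle: non-phytotoxic solvent blend with surfactant. Score: visual injury on a 0 (no effect) to 100 (complete control) scale.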
# [2] = system: pigweed (Amaranthus retroflexus); experiment: Test A postemergence, visual plant response rating; conditions: for Pigweed plant response rating (0 to 100 scale): 500 g ai/ha, postemergence, 0 is no effect, 100 is complete control; for Pigweed plant response rating: Postemergence, 125 g ai/ha, 0 to 100 scale (0 no effect, 100 complete control)
# Outline: as §1
# [3] = system: galium (catchweed bedstraw, Galium aparine); experiment: Test A postemergence, visual plant response rating; conditions: for Galium plant response rating (0 to 100 scale): 500 g ai/ha, postemergence, 0 is no effect, 100 is complete control; for Galium plant response rating: Postemergence, 125 g ai/ha, 0 to 100 scale (0 no effect, 100 complete control)
# Outline: as §1
# [4] = system: barnyardgrass (Echinochloa crus-galli); experiment: Test A postemergence, visual plant response rating; conditions: for Barnyardgrass plant response rating (0 to 100 scale): 500 g ai/ha, postemergence, 0 is no effect, 100 is complete control; for Barnyardgrass plant response rating: Postemergence, 125 g ai/ha, 0 to 100 scale (0 no effect, 100 complete control)
# Outline: as §1
# [5] = system: foxtail, giant (giant foxtail, Setaria faberii); experiment: Test A postemergence, visual plant response rating; conditions: for Foxtail, Giant plant response rating (0 to 100 scale): 500 g ai/ha, postemergence, 0 is no effect, 100 is complete control; for Foxtail, Giant plant response rating: Postemergence, 125 g ai/ha, 0 to 100 scale (0 no effect, 100 complete control)
# Outline: as §1
# [6] = system: corn (Zea mays); experiment: Test A postemergence, visual plant response rating; conditions: for Corn plant response rating (0 to 100 scale): 500 g ai/ha, postemergence, 0 is no effect, 100 is complete control; for Corn plant response rating: Postemergence, 125 g ai/ha, 0 to 100 scale (0 no effect, 100 complete control)
# Outline: as §1
# [7] = system: wheat (Triticum aestivum); experiment: Test A postemergence, visual plant response rating; conditions: for Wheat plant response rating (0 to 100 scale): 500 g ai/ha, postemergence, 0 is no effect, 100 is complete control; for Wheat plant response rating: Postemergence, 125 g ai/ha, 0 to 100 scale (0 no effect, 100 complete control)
# Outline: as §1
# [8] = system: ragweed (common ragweed, Ambrosia elatior); experiment: Test A postemergence, visual plant response rating; conditions: for Ragweed plant response rating (0 to 100 scale): 500 g ai/ha, postemergence, 0 is no effect, 100 is complete control; for Ragweed plant response rating: Postemergence, 125 g ai/ha, 0 to 100 scale (0 no effect, 100 complete control)
# Outline: as §1
# [9] = system: kochia (Kochia scoparia); experiment: Test A postemergence, visual plant response rating; conditions: for Kochia plant response rating (0 to 100 scale): 500 g ai/ha, postemergence, 0 is no effect, 100 is complete control; for Kochia plant response rating: Postemergence, 125 g ai/ha, 0 to 100 scale (0 no effect, 100 complete control)
# Outline: as §1
# [10] = system: Italian ryegrass (Lolium multiflorum); experiment: Test A postemergence, visual plant response rating; conditions: for Ryegrass, Italian plant response rating (0 to 100 scale): 500 g ai/ha, postemergence, 0 is no effect, 100 is complete control; for Ryegrass, Italian plant response rating: Postemergence, 125 g ai/ha, 0 to 100 scale (0 no effect, 100 complete control)
# Outline: as §1
# [11] = system: barnyardgrass (Echinochloa crus-galli); experiment: Test B flooded paddy test, visual plant response rating; conditions: 250 g ai/ha, Flood, applied to paddy water, 2-leaf stage, evaluated after 13 to 15 days
# Outline: (§2)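 2-leaf plants; pots flooded 3 cm over soil surface; compound dosed straight into the floodwater; depth kept constant; greenhouse 13–15 d; visual rating vs. untreated controls.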
# [12] = system: rice (Oryza sativa); experiment: as above; conditions: 250 g ai/ha, Flood, applied to paddy water, 2-leaf stage, evaluated after 13 to 15 days
# Outline: as §2
# [13] = system: sedge, umbrella (small-flower umbrella sedge, Cyperus difformis); experiment: as above; conditions: 250 g ai/ha, Flood, applied to paddy water, 2-leaf stage, evaluated after 13 to 15 days
# Outline: as §2
# [14] = system: ducksalad (Heteranhera limosa); experiment: as above; conditions: 250 g ai/ha, Flood, applied to paddy water, 2-leaf stage, evaluated after 13 to 15 days
# Outline: as §2
# [15] = system: pigweed (Amaranthus retroflexus); experiment: Test A preemergence, visual plant response rating; conditions: for Pigweed plant response rating: 125 g ai/ha, preemergence, 0 to 100 scale, 0 no effect, 100 complete control; for Pigweed plant response rating (0 to 100 scale): 500 g ai/ha Preemergence, approx. 10 days
# Outline: as §1
# [16] = system: barnyardgrass (Echinochloa crus-galli); experiment: Test A preemergence, visual plant response rating; conditions: for Barnyardgrass plant response rating: 125 g ai/ha, preemergence, 0 to 100 scale, 0 no effect, 100 complete control; for Barnyardgrass plant response rating (0 to 100 scale): 500 g ai/ha Preemergence, approx. 10 days
# Outline: as §1
# [17] = system: foxtail, giant (giant foxtail, Setaria faberii); experiment: Test A preemergence, visual plant response rating; conditions: for Foxtail, Giant plant response rating: 125 g ai/ha, preemergence, 0 to 100 scale, 0 no effect, 100 complete control; for Foxtail, Giant plant response rating (0 to 100 scale): 500 g ai/ha Preemergence, approx. 10 days
# Outline: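 Formulated in a non-phytotoxic solvent mixture including surfactant, each test chemical was sprayed onto the soil surface after sowing, or onto seedlings 2 to 10 cm high. Roughly 10 days later, plants were compared with untreated controls and rated for injury from 0 (no effect) to 100 (complete control).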
# [18] = system: ragweed (common ragweed, Ambrosia elatior); experiment: Test A preemergence, visual plant response rating; conditions: for Ragweed plant response rating: 125 g ai/ha, preemergence, 0 to 100 scale, 0 no effect, 100 complete control; for Ragweed plant response rating (0 to 100 scale): 500 g ai/ha Preemergence, approx. 10 days
# Outline: as §1
# [19] = system: kochia (Kochia scoparia); experiment: Test A preemergence, visual plant response rating; conditions: for Kochia plant response rating: 125 g ai/ha, preemergence, 0 to 100 scale, 0 no effect, 100 complete control; for Kochia plant response rating (0 to 100 scale): 500 g ai/ha Preemergence, approx. 10 days
# Outline: as §1
# [20] = system: Italian ryegrass (Lolium multiflorum); experiment: Test A preemergence, visual plant response rating; conditions: for Ryegrass, Italian plant response rating: 125 g ai/ha, preemergence, 0 to 100 scale, 0 no effect, 100 complete control; for Ryegrass, Italian plant response rating (0 to 100 scale): 500 g ai/ha Preemergence, approx. 10 days
# Outline: as §1
Structure (SMILES),Blackgrass plant response rating (0 to 100 scale) [1],Blackgrass plant response rating [1],Pigweed plant response rating (0 to 100 scale) [2],Pigweed plant response rating [2],Galium plant response rating (0 to 100 scale) [3],Galium plant response rating [3],Barnyardgrass plant response rating (0 to 100 scale) [4],Barnyardgrass plant response rating [4],"Foxtail, Giant plant response rating (0 to 100 scale) [5]","Foxtail, Giant plant response rating [5]",Corn plant response rating (0 to 100 scale) [6],Corn plant response rating [6],Wheat plant response rating (0 to 100 scale) [7],Wheat plant response rating [7],Ragweed plant response rating (0 to 100 scale) [8],Ragweed plant response rating [8],Kochia plant response rating (0 to 100 scale) [9],Kochia plant response rating [9],"Ryegrass, Italian plant response rating (0 to 100 scale) [10]","Ryegrass, Italian plant response rating [10]",also measured
"CO/N=C(\c1c(O)c(Cl)nn(C)c1=O)c1cccc2ccccc12 [Compound 129, 6-chloro-5-hydroxy-4-[(Z)-(methoxyimino)-1-naphthalenylmethyl]-2-methyl-3(2H)-pyridazinone]",70,30,70,40,90,80,50,30,60,40,0,0,0,0,100,90,80,70,10,0,"Plant response rating, Barnyardgrass (0 to 100 scale, 0 is no effect, 100 is complete control) [11]: 0; Plant response rating, Rice (0 to 100 scale, 0 is no effect, 100 is complete control) [12]: 0; Plant response rating, Sedge, Umbrella (0 to 100 scale, 0 is no effect, 100 is complete control) [13]: 0; Plant response rating, Ducksalad (0 to 100 scale, 0 is no effect, 100 is complete control) [14]: 0; Pigweed plant response rating [15]: 10; Pigweed plant response rating (0 to 100 scale) [15]: 90; Barnyardgrass plant response rating [16]: 60; Barnyardgrass plant response rating (0 to 100 scale) [16]: 80; Foxtail, Giant plant response rating [17]: 60; Foxtail, Giant plant response rating (0 to 100 scale) [17]: 80; Ragweed plant response rating [18]: 70; Ragweed plant response rating (0 to 100 scale) [18]: 100; Kochia plant response rating [19]: 10; Kochia plant response rating (0 to 100 scale) [19]: 50; Ryegrass, Italian plant response rating [20]: 0; Ryegrass, Italian plant response rating (0 to 100 scale) [20]: 0"
CON=C(c1c(O)c(C)nn(C)c1=O)c1ccc(Cl)c2ccccc12 [Compound 130],70,50,80,70,90,80,30,30,70,30,30,10,40,10,80,60,70,50,90,30,"Plant response rating, Barnyardgrass (0 to 100 scale, 0 is no effect, 100 is complete control) [11]: 0; Plant response rating, Rice (0 to 100 scale, 0 is no effect, 100 is complete control) [12]: 0; Plant response rating, Sedge, Umbrella (0 to 100 scale, 0 is no effect, 100 is complete control) [13]: 35; Plant response rating, Ducksalad (0 to 100 scale, 0 is no effect, 100 is complete control) [14]: 0; Pigweed plant response rating [15]: 50; Pigweed plant response rating (0 to 100 scale) [15]: 50; Barnyardgrass plant response rating [16]: 0; Barnyardgrass plant response rating (0 to 100 scale) [16]: 70; Foxtail, Giant plant response rating [17]: 30; Foxtail, Giant plant response rating (0 to 100 scale) [17]: 60; Ragweed plant response rating [18]: 20; Ragweed plant response rating (0 to 100 scale) [18]: 50; Kochia plant response rating [19]: 0; Kochia plant response rating (0 to 100 scale) [19]: 0; Ryegrass, Italian plant response rating [20]: 30; Ryegrass, Italian plant response rating (0 to 100 scale) [20]: 50"
CON=C(c1c(O)c(C)nn(C)c1=O)c1ccc(C)c2ccccc12 [Compound 131],50,30,10,0,80,80,50,20,50,10,20,0,0,0,80,80,30,10,10,0,"Plant response rating, Barnyardgrass (0 to 100 scale, 0 is no effect, 100 is complete control) [11]: 0; Plant response rating, Rice (0 to 100 scale, 0 is no effect, 100 is complete control) [12]: 0; Plant response rating, Sedge, Umbrella (0 to 100 scale, 0 is no effect, 100 is complete control) [13]: 0; Plant response rating, Ducksalad (0 to 100 scale, 0 is no effect, 100 is complete control) [14]: 0; Pigweed plant response rating [15]: 0; Pigweed plant response rating (0 to 100 scale) [15]: 0; Barnyardgrass plant response rating [16]: 0; Barnyardgrass plant response rating (0 to 100 scale) [16]: 60; Foxtail, Giant plant response rating [17]: 60; Foxtail, Giant plant response rating (0 to 100 scale) [17]: 70; Ragweed plant response rating [18]: 60; Ragweed plant response rating (0 to 100 scale) [18]: 80; Kochia plant response rating [19]: 0; Kochia plant response rating (0 to 100 scale) [19]: 20; Ryegrass, Italian plant response rating [20]: 0; Ryegrass, Italian plant response rating (0 to 100 scale) [20]: 0"
CON=C(c1sccc1C)c1c(O)c(C)nn(C)c1=O [Compound 134],10,0,80,40,60,60,20,10,20,10,0,0,0,0,70,60,70,20,80,20,"Plant response rating, Barnyardgrass (0 to 100 scale, 0 is no effect, 100 is complete control) [11]: 0; Plant response rating, Rice (0 to 100 scale, 0 is no effect, 100 is complete control) [12]: 0; Plant response rating, Sedge, Umbrella (0 to 100 scale, 0 is no effect, 100 is complete control) [13]: 0; Plant response rating, Ducksalad (0 to 100 scale, 0 is no effect, 100 is complete control) [14]: 0; Pigweed plant response rating [15]: 20; Pigweed plant response rating (0 to 100 scale) [15]: 60; Barnyardgrass plant response rating [16]: 0; Barnyardgrass plant response rating (0 to 100 scale) [16]: 10; Foxtail, Giant plant response rating [17]: 0; Foxtail, Giant plant response rating (0 to 100 scale) [17]: 10; Ragweed plant response rating (0 to 100 scale) [18]: 70; Kochia plant response rating [19]: 10; Kochia plant response rating (0 to 100 scale) [19]: 50; Ryegrass, Italian plant response rating [20]: 10; Ryegrass, Italian plant response rating (0 to 100 scale) [20]: 30"

# Reference: patent US20210045385A1, “PYRIDAZINONE-SUBSTITUTED KETOXIMES AS HERBICIDES” (FMC Corporation, priority 2018, published 2021)
